Activity calls are given as the source filed them. The calls are words filed in the database; no cut-off is given here.
What was measured:
Bacteria [1] = test: (§1) Inhibition of Beta-lactamase AmpC (unknown origin) using CENTA as chromogenic substrate assessed as enzyme recovery by measuring residual activity at approximately IC90 preincubated for 5 mins in presence of 10 mg/ml BSA followed by enzyme addition and measured after 5 mins by absorbance based analysis relative to control; settings: time 10.0 min
[2] = Inhibition of Beta-lactamase AmpC (unknown origin) using CENTA as chromogenic substrate preincubated for 5 mins followed by substrate addition and measured for 80 sec by absorbance based analysis; parameters: species or system Bacteria
[3] = Aggregation property of compound in 50 mM KPi buffer at pH 7 assessed as critical aggregation concentration by DLS assay; type: physicochemical
SARS-CoV = test: Antiviral activity against HIV-Luc pseudotyped SARS CoV infected in Vero E6 cells assessed as reduction in virus entry preincubated for 30 mins followed by infection in cells and measured after 36 hrs by luciferase assay; type: functional, organism-based; settings: Severe acute respiratory syndrome-related coronavirus, Vero C1008
SARS-CoV-2 [4] = test: Antiviral activity against SARS CoV-2 spike-pseudotyped lentivirus infected in human A549-hACE2-TMPRSS2 cells assessed as inhibition of viral entry incubated for 24 hrs in absence of BSA by luciferase reporter assay; type: functional, organism-based; settings: Severe acute respiratory syndrome coronavirus 2, A549-hACE2-TMPRSS2, 24 h
[5] = Absorption property of compound in DMEM media at 100 to 200 uM at 500 to 700 nm by luciferase assay; type: physicochemical; settings: dose 100-200 µM
[6] = Aggregation property of compound in DMEM media assessed as critical aggregation concentration by DLS assay; type: physicochemical
Bacteria [7] = test: as §1, with “of triton X-0.01%” for “of 10 mg/ml BSA”, “by substrate” for “by enzyme”, “measured for 80 sec” for “measured after 5 mins”; settings: time 380.0 sec
SARS-CoV-2 [8] = test: Antiviral activity against luciferase independent SARS CoV-2 spike-pseudotyped lentivirus infected in human A549-hACE2-TMPRSS2 cells assessed as inhibition of viral entry at 31.6 to 63.3 uM compound spin-down for 1 hr followed by viral infection and measured after 24 hrs by luciferase reporter assay; type: functional, organism-based; settings: Severe acute respiratory syndrome coronavirus 2, dose 31.6-63.3 µM, time 25.0 hrs
Sus scrofa [9] = organism: Sus scrofa; test: as §1, with “porcine heart MDH” for “Beta-lactamase AmpC (unknown origin)”, “oxaloacetic acid” for “CENTA”, “as” for “as chromogenic”; settings: time 10.0 min
Sus scrofa [10] = organism: Sus scrofa; test: Inhibition of porcine heart MDH using oxaloacetic acid as substrate assessed as enzyme recovery by measuring residual activity at approximately IC90 preincubated for 5 mins in presence of triton X-0.01% followed by substrate and […] addition and measured for 80 sec by absorbance based analysis relative to control; settings: time 380.0 sec
Sus scrofa [11] = organism: Sus scrofa; test: Inhibition of porcine heart MDH using oxaloacetic acid as substrate at approximately IC90 spin-down for 1 hr followed by enzyme addition and measured after 5 mins by absorbance based analysis; settings: time 65.0 min
[12] = Inhibition of porcine heart MDH using oxaloacetic acid as substrate preincubated for 5 mins followed by substrate and […] addition and measured for 80 sec by absorbance based analysis; parameters: species or system Sus scrofa
[13] = Cytotoxicity against human A549-hACE2-TMPRSS2 assessed as reduction in cell viability incubated for 24 hrs by MTT assay; type: toxicity, cell-based; settings: a549-hace2-tmprss2, 24 h
SARS-CoV-2 [14] = test: Antiviral activity against SARS-CoV-2 infected in Vero E6 cells assessed as reduction in viral infectivity; type: functional, organism-based; settings: Severe acute respiratory syndrome coronavirus 2, Vero C1008
SARS-CoV-2 [15] = test: Antiviral activity against SARS-CoV-2 infected in Vero E6 cells assessed as reduction in virus induced cytopathic effect pretreated for 30 mins followed by virus infection and measured after 72 hrs by MTS assay; type: functional, organism-based; settings: Severe acute respiratory syndrome coronavirus 2, Vero C1008
[16] = target: Spike glycoprotein (Severe acute respiratory syndrome coronavirus 2) (UniProt P0DTC2); test: Binding affinity to Alex-fluor-647 labeled SARS-CoV-2 spike protein assessed as protein-colloid complex formation by measuring fluorescence puncta formation compound preincubated with 10 mg/ml BSA for 5 mins followed by protein addition and further incubated for 5 mins by confocal microscopic analysis
SARS-CoV-2 [17] = test: Antiviral activity against luciferase independent SARS CoV-2 spike-pseudotyped lentivirus infected in human A549-hACE2-TMPRSS2 cells assessed as inhibition of viral entry measured after 24 hrs before centrifugation by luciferase reporter assay; type: functional, organism-based; settings: Severe acute respiratory syndrome coronavirus 2, A549-hACE2-TMPRSS2
SARS-CoV-2 [18] = test: Antiviral activity against luciferase independent SARS CoV-2 spike-pseudotyped lentivirus infected in human A549-hACE2-TMPRSS2 cells assessed as inhibition of viral entry by measuring reduction in luciferase activity incubated for 24 hrs by luciferase reporter assay; type: functional, organism-based; settings: Severe acute respiratory syndrome coronavirus 2
[19] = target: Spike glycoprotein (Severe acute respiratory syndrome coronavirus 2) (UniProt P0DTC2); test: Binding affinity to Alex-fluor-647 labeled SARS-CoV-2 spike protein assessed as protein-colloid complex formation by measuring fluorescence puncta formation incubated for 5 mins in presence of 0.025% Tween-80 by confocal microscopic analysis
[20] = target: Spike glycoprotein (Severe acute respiratory syndrome coronavirus 2) (UniProt P0DTC2); test: Binding affinity to Alex-fluor-647 labeled SARS-CoV-2 spike protein assessed as protein-colloid complex formation by measuring fluorescence puncta formation incubated for 5 mins by confocal microscopic analysis
SARS-CoV-2 [21] = test: Antiviral activity against SARS-CoV-2; type: functional, organism-based; settings: Severe acute respiratory syndrome coronavirus 2
SARS-CoV-2 [22] = test: Antiviral activity against luciferase independent SARS CoV-2 spike-pseudotyped lentivirus infected in human A549-hACE2-TMPRSS2 cells assessed as inhibition of viral entry compound spin-down for 1 hr followed by viral infection and measured after 24 hrs by luciferase reporter assay; type: functional, organism-based; settings: Severe acute respiratory syndrome coronavirus 2, A549-hACE2-TMPRSS2
SARS-CoV-2 [23] = test: Antiviral activity against SARS CoV-2 spike-pseudotyped lentivirus infected in human A549-hACE2-TMPRSS2 cells assessed as inhibition of viral entry preincubated with 10 mg/ml BSA for 5 mins followed by viral infection and further incubated for 24 hrs by luciferase reporter assay; type: functional, organism-based; settings: Severe acute respiratory syndrome coronavirus 2, A549-hACE2-TMPRSS2
[24] = target: Spike glycoprotein (Severe acute respiratory syndrome coronavirus 2) (UniProt P0DTC2); test: Binding affinity to Alex-fluor-647 labeled SARS-CoV-2 spike protein assessed as protein-colloid complex formation by measuring fluorescence puncta formation at 200 uM incubated for 5 mins by confocal microscopic analysis
SARS-CoV-2 [25] = test: Antiviral activity against SARS-CoV-2 pseudovirus infected in 293T/ACE2 cells assessed as reduction in virus entry preincubated with compound followed by infection in cells and measured after 48 hrs by luciferase based assay; type: functional, organism-based; settings: Severe acute respiratory syndrome coronavirus 2, 293T/ACE2

SMILES | CAC [3] | EC50 (SARS-CoV-2 [4]) | Activity [5] | CAC [6] | Activity (SARS-CoV-2 [8]) | Activity (Sus scrofa [9]) | Activity (Sus scrofa [10]) | IC50 [12] | EC50 (SARS-CoV-2 [17]) | Activity (SARS-CoV-2 [18]) | other results
O=C(OC[C@H]1O[C@@H](OC(=O)c2cc(O)c(O)c(O)c2)[C@H](OC(=O)c2cc(O)c(O)c(O)c2)[C@@H](OC(=O)c2cc(O)c(O)c(O)c2)[C@@H]1O)c1cc(O)c(O)c(O)c1 | 12 µM | 0.07 µM | Not Active | 9.8 µM | – | – | – | – | – | – | Activity (Bacteria [1]): 80%; IC50 [2]: 13 µM; EC50 (SARS-CoV): 2.86 µM; Activity (Bacteria [7]): 51%
C=C(C)[C@@H]1CCC(C)=C[C@H]1c1c(O)cc(CCCCC)c(C(=O)O)c1O [CANNABIDIOLIC ACID] | 61 µM | – | Not Active | 14 µM | Active | 61% | 81.3% | 47 µM | – | – | inhibition (Sus scrofa [11]): Active; Activity [13]: Toxic
COc1cc(/C=C/C(=O)CC(=O)/C=C/c2ccc(O)c(OC)c2)ccc1O [CURCUMIN] | 26 µM | – | Not Active | 12 µM | – | 124% | 116% | 14 µM | – | – | EC50 (SARS-CoV-2 [14]): 16.3 µM
Cc1ccc(C(=O)Nc2ccc(S(=O)(=O)O)c3cc(S(=O)(=O)O)cc(S(=O)(=O)O)c23)cc1NC(=O)c1cccc(NC(=O)Nc2cccc(C(=O)Nc3cc(C(=O)Nc4ccc(S(=O)(=O)O)c5cc(S(=O)(=O)O)cc(S(=O)(=O)O)c45)ccc3C)c2)c1 [SURAMIN] | – | – | Not Active | – | Active | 91% | -4.8% | 1.2 µM | – | – | EC50 (SARS-CoV-2 [15]): 20 µM
Cc1cc(O)c2c(c1)C(=O)c1cc(O)cc(O)c1C2=O [EMODIN] | 8.6 µM | 2.21 µM | Not Active | 63.1 µM | – | 67% | – | 39 µM | 2.22 µM | Active | Activity [16]: inactive; Activity [19]: inactive; Activity [20]: Active; EC50 (SARS-CoV-2 [21]): 25 µM
CC1(C)[C@@H](O[C@H]2O[C@H](C(=O)O)[C@@H](O)[C@H](O)[C@H]2O[C@@H]2O[C@H](C(=O)O)[C@@H](O)[C@H](O)[C@H]2O)CC[C@]2(C)[C@H]3C(=O)C=C4[C@@H]5C[C@@](C)(C(=O)O)CC[C@]5(C)CC[C@@]4(C)[C@]3(C)CC[C@@H]12 [GLYCYRRHIZIN] | 10 µM | – | Not Active | 15 µM | – | – | – | – | 2.6 µM | Active | Activity (Bacteria [1]): 60%; IC50 [2]: 33 µM; EC50 (SARS-CoV-2 [22]): 45.7 µM; EC50 (SARS-CoV-2 [21]): 2500 µM; Activity (Bacteria [7]): 47%
CCCCCc1cc(O)c(C/C=C(\C)CCC=C(C)C)c(O)c1C(=O)O [CANNABIGEROLIC ACID] | 12 µM | 1.21 µM | Not Active | 162 µM | Active | 68% | 95.7% | 29 µM | – | Active | Activity [16]: inactive; Activity [19]: inactive; Activity [20]: Active; inhibition (Sus scrofa [11]): Active; Activity [13]: Toxic
CN1CCCC(n2nc(Cc3ccc(Cl)cc3)c3ccccc3c2=O)CC1 (centres undefined) [AZELASTINE] | – | 27 µM | – | – | – | – | – | – | 18.7 µM | Active | EC50 (SARS-CoV-2 [23]): 44.7 µM; EC50 (SARS-CoV-2 [22]): 12.9 µM; Activity [24]: inactive
C[C@]12CC[C@@H]3c4ccc(OC(=O)c5ccccc5)cc4CC[C@H]3[C@@H]1CC[C@@H]2O [ESTRADIOL BENZOATE] | 9.3 µM | – | Not Active | 1.8 µM | – | 62% | 89.1% | 87 µM | – | – | EC50 (SARS-CoV-2 [25]): 0.27 µM

Reference: ChEMBL document CHEMBL5512692, “Colloidal Aggregation Confounds Cell-Based Covid-19 Antiviral Screens” (J Med Chem, 2024)
